Columns and labels:
[1] = target: BRD4-BD1 (Homo sapiens (Human), UniProt O60885); assay: BRD4 AlphaScreen assay (BRD4-BD1); format: binding; settings: H4Ac4 peptide, 3.8 nM BRD4-BD1, read-out: BRD4 BD-1 enzyme IC50
Method: (§1) BRD4-BD1 and BRD4-BD2 assays were conducted in white 384-well polystyrene plate in a final volume of 20 μL for BD1 and 40 μL for BD2. Inhibitors were first serially diluted in DMSO and added to the plate wells before the addition of other reaction components. The final concentration of DMSO in the assay was 1.25% (BD1) and 0.83% (BD2). The assays were carried out at room temperature for 75 min. in the assay buffer (50 mM HEPES, pH 7.4, 100 mM NaCl, 0.05% CHAPS, 0.01% BSA), containing 50 nM Biotin-labeled tetra-acetylated histone H4 peptide (H4Ac4), 3.8 nM (BRD4-BD1, BPS Bioscience #31040) or 20 nM (BRD4-BD2, BPS Bioscience #31041). The reaction followed by the addition of 20 μL of assay buffer supplemented with Streptavidin donor beads (PerkinElmer 6760002) and GSH Acceptor beads (PerkinElmer-AL109C) at 4 µg/mL under reduced light. After plate sealing, the plate was incubated in the dark at room temperature for 75 min. before reading on a PHERAstar FS plate reader (BMG Labtech). IC50 determination was performed by fitting the curve of percent control activity versus the log of the inhibitor concentration using the GraphPad Prism 5.0 software. IC50 data for the Examples is presented in Table 1 as determined by Assay A1.

[2] = target: BRD4-BD2 (Homo sapiens (Human), UniProt O60885); assay: BRD4 AlphaScreen assay (BRD4-BD2); format: binding; settings: H4Ac4 peptide, 20 nM BRD4-BD2, read-out: BRD4 BD-2 enzyme IC50
Method: as §1

[3] = tested on: C-myc in KMS.12.BM cells; assay: KMS.12.BM C-myc ELISA assay; format: cell-based; settings: Homo sapiens, 2 hours
Method: KMS.12.BM cell line (human myeloma) was purchased from JCRB (Osaka, Japan) and maintained in RPMI with 10% FBS culture medium. To measure the C-myc inhibitory activity of the compounds, the KMS.12.BM cells are plated in the RPMI culture medium at 75000 cells/well/per 200 μL into a 96-well flat bottom polystyrene tissue culture plate (Corning through VWR, N.J.), in the presence or absence of a concentration range of test compounds. After 2 hours, cell are pelleted and lysed with Cell Extraction Buffer (BioSource, Carlsbad, Calif.) in the presence of protease inhibitors (Life Technologies, Grand Island, N.Y. and Sigma, St Louis, Mo.). Clarified lyses are tested in a C-myc commercial ELISA (Life Technologies, Grand Island, N.Y.). Compound inhibition is determined relative to cells cultured with no drug and the IC50 is reported as the compound concentration required for 50% C-myc inhibition. IC50 data for the Examples is presented in Table 3 as determined by Assay C1.

[4] = tested on: KMS.12.BM cells; assay: KMS.12.BM cell viability assay (ATP quantitation, Cell Titer-GLO); format: cell-based; settings: Homo sapiens, 72 h, 3 days, concentration required for 50% cell death, read-out: KMS cellular IC50
Method: KMS.12.BM cell line (human myeloma) was purchased from JCRB (Osaka, Japan) and maintained in RPMI with 10% FBS culture medium. To measure the cytotoxic activity of the compounds through ATP quantitation, the KMS.12.BM cells are plated in the RPMI culture medium at 5000 cells/well/per 100 μL into a 96-well polystyrene clear black tissue culture plate (Greiner-bio-one through VWR, NJ), in the presence or absence of a concentration range of test compounds. After 3 days, […] Cell Titer-GLO Luminescent (Promega, Madison, Wis.) cell culture agent is added to each well for 10 minutes at room temperature to stabilize the luminescent signal. This determines the number of viable cells in culture based on quantitation of the ATP present, which signals the presence of metabolically active cells. Luminescence is measured with the Top Count 384 (Packard Bioscience through Perkin Elmer, Boston, Mass.). Compound inhibition is determined relative to cells cultured with no drug and the IC50 is reported as the compound concentration required for 50% cell death. IC50 data for the Examples is presented in Table 2 as determined by Assay B1.

Structure (SMILES)	IC50 [1]	IC50 [2]	IC50 [3]	IC50 [4]
Cn1cc(-c2cc3c(cc2Oc2ccc(F)cc2F)n(C)c(=O)n3C)c2cn[nH]c2c1=O [Example 10, 4-[6-(2,4-Difluorophenoxy)-1,3-dimethyl-2-oxo-2,3-dihydro-1H-benzimidazol-5-yl]-6-methyl-1,6-dihydro-7H-pyrazolo[3,4-c]pyridin-7-one]	≤ 100 nM	≤ 100 nM	≤ 1000 nM	≤ 1000 nM
Cn1cc(-c2cc3[nH]c(=O)[nH]c3cc2Oc2ccc(F)cc2F)c2cc[nH]c2c1=O [Example 1, 5-(2,4-Difluorophenoxy)-6-(6-methyl-7-oxo-6,7-dihydro-1H-pyrrolo[2,3-c]pyridin-4-yl)-1,3-dihydro-2H-benzimidazol-2-one]	≤ 100 nM	≤ 100 nM	≤ 1000 nM	≤ 1000 nM
